# Measurements from PMC1865377, “A novel bifunctional N-acetylglutamate synthase-kinase from Xanthomonas campestris that is closely related to mammalian N-acetylglutamate synthase” (BMC Biochemistry, 2007).
# Experiments:
# H6XcNAGS-K [1] = biological target: T1, H6XcNAGS-K (Xanthomonas campestris, UniProt A0A0H2X8L7); assay: synthase activity, LC-MS of N-acetylglutamate; format: biochemical; settings: 50 mM L-glutamate, 2 mM AcCoA, pH 9.0, 30 °C
# T1 construct: gene XC_1873; full length, E. coli BL21(DE3), pET15b, N-terminal polyhistidine tag and thrombin site kept
# T1 sequence (A0A0H2X8L7 1-447): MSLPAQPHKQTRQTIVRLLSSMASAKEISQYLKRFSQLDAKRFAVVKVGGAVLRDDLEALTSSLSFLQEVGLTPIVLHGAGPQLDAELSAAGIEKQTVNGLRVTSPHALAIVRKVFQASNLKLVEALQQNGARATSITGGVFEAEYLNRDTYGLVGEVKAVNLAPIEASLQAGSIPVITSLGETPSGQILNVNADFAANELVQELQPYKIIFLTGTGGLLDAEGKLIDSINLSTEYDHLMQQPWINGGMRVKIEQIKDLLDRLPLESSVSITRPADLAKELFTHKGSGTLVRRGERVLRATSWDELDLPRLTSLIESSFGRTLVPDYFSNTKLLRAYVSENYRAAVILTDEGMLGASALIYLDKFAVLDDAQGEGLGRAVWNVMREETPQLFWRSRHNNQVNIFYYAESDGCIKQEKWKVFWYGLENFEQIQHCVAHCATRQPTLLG
# H6XcNAGS-K [2] = biological target: T1, H6XcNAGS-K; assay: kinase activity, colorimetric hydroxamate assay; format: biochemical; settings: 100 mM N-acetylglutamate, 20 mM ATP, 40 mM MgCl2, 400 mM hydroxylamine, pH 6.0, 30 °C
structure (smiles),measurement,setting,value
N=C(N)NCCC[C@H](N)C(=O)O [L-arginine],half-inhibition,H6XcNAGS-K [1],presence of an affinity tag did not affect the inhibition of the synthase activity of XcNAGS-K
same,half-inhibition,H6XcNAGS-K [2],half-inhibition of the kinase activities of XcNAGS-K with and without polyhistidine differed two-fold
